# Target: Polθ protein (amino acids 2-2590) (Homo sapiens, UniProt O75417)
# Experiment: Polθ full length enzyme potency assay (PicoGreen)
# Details: Polθ IC50 (nM), full length N-His, C-term FLAG tagged Polθ, PicoGreen fluorescence, 12 point concentration response
# Description: Polθ Full Length Enzyme Potency Assay
# PicoGreen assay was used to measure the ability of compounds to inhibit the activity of Polθ in vitro. […] DMSO concentration was maintained at 1% by back filling with DMSO solution. […] This was dispensed into each well of the compound plate using a VIAFLO 16 channel manual pipette (Integra) and pre-incubated at rt for 30 min. 3 μL of 2× working solution of dNTPs (40 μM) (dATP, dCTP, dGTP, dTTP; Sigma D6500, D4635, D4010, T0251) diluted in assay buffer was then added and the reaction incubated for 60 min at rt. The reaction was stopped by addition of 10 mM EDTA, 25 mM Tris pH 7.5 and 1:200 dilution of PicoGreen dye (Invitrogen P7581).
# Polθ protein (amino acids 2-2590), sequence (O75417 2-2590): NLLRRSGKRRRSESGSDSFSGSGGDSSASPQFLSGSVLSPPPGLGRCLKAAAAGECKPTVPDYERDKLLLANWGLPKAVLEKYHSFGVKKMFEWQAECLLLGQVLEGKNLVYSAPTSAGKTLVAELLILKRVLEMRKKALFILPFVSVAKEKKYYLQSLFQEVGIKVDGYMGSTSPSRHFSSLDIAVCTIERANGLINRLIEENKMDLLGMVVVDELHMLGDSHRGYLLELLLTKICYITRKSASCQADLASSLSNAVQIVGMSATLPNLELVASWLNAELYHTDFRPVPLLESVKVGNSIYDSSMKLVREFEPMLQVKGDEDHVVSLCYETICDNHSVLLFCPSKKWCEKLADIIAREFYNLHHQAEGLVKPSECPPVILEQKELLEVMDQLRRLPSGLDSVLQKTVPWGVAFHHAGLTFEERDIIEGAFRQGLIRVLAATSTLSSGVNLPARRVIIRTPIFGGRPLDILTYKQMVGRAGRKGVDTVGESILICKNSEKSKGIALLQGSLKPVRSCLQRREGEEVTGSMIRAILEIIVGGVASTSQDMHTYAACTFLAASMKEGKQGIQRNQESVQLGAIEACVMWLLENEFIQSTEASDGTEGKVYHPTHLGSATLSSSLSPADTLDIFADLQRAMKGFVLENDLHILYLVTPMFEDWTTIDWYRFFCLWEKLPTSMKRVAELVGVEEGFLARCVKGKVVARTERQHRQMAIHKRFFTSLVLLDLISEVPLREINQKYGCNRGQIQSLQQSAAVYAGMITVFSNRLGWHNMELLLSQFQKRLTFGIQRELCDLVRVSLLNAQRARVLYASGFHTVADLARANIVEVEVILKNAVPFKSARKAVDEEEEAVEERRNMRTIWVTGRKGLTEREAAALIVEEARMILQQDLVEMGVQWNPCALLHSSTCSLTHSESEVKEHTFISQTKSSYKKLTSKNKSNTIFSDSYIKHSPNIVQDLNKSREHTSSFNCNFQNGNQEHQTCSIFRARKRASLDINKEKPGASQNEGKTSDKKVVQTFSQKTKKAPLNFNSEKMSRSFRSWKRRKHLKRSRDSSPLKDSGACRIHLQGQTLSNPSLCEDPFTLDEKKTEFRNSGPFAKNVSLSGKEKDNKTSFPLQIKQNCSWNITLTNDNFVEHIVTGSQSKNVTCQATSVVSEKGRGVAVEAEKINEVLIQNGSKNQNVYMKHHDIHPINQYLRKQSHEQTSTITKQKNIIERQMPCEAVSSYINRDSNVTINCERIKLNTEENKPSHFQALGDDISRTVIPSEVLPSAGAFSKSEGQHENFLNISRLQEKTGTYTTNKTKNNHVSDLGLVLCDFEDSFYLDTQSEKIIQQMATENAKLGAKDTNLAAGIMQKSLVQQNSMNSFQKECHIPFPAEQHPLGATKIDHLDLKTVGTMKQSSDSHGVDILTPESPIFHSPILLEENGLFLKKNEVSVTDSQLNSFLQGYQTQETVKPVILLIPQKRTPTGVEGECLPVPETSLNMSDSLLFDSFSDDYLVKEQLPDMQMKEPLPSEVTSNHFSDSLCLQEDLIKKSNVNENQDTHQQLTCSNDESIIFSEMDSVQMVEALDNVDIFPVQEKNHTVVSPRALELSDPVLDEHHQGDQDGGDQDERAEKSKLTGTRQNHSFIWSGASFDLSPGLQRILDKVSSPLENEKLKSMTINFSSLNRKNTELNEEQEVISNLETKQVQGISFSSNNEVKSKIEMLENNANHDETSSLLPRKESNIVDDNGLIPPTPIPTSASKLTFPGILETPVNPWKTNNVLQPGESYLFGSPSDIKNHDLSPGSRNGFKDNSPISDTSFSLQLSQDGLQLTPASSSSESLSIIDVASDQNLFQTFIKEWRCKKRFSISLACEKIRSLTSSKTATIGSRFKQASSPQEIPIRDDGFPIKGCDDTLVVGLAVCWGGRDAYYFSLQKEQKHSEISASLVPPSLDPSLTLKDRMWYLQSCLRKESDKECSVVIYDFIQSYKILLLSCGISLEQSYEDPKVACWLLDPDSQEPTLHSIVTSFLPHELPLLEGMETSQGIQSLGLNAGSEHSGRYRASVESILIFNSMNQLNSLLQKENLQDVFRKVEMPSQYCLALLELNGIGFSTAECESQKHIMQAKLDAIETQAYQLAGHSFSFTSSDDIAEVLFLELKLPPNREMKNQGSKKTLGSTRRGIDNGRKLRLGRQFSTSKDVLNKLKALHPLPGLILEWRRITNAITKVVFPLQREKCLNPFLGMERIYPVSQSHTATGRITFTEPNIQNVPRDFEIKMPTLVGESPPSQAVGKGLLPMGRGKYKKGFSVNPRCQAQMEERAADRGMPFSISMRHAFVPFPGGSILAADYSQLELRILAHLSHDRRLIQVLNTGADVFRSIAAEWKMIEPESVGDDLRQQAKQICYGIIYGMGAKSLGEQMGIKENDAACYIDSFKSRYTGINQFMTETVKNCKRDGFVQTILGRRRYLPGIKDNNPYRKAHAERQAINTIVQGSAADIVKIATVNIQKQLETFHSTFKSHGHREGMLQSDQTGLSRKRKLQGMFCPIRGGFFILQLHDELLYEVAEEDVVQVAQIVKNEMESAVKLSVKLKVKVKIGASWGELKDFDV
row,Structure (SMILES),IC50
1,"CCN(C(=O)[C@@H]1C[C@H](N(C)[C@H]2CN(C(=O)OC(C)(C)C)C[C@H]2O)CN1c1cc(C(F)(F)F)cc(C)n1)c1ccc(F)c(F)c1 [Example 144, tert-Butyl (3S,4R)-3-(((3S,5S)-5-((3,4-difluorophenyl)(ethyl)carbamoyl)-1-(6-methyl-4-(trifluoromethyl)pyridin-2-yl)pyrrolidin-3-yl)(methyl)amino)-4-hydroxypyrrolidine-1-carboxylate]",1310 nM
2,"Cc1cc(C(F)(F)F)cc(N2C(=O)N(CC(N)=O)C[C@H]2C(=O)N(C)c2ccc(F)c(Cl)c2)n1 [Example 184, (S)-1-(2-Amino-2-oxoethyl)-N-(3-chloro-4-fluorophenyl)-N-methyl-3-(6-methyl-4-(trifluoromethyl)-pyridin-2-yl)-2-oxoimidazolidine-4-carboxamide]",13 nM
3,"CCN(C(=O)[C@@H]1C[C@H](NC2CNC(=O)C2)CN1c1cc(C(F)(F)F)cc(C)n1)c1ccc(F)c(F)c1 (stereo partly drawn) [Example 137, (2S,4S)-N-(3,4-Difluorophenyl)-N-ethyl-1-(6-methyl-4-(trifluoromethyl)pyridin-2-yl)-4-((5-oxopyrrolidin-3-yl)amino)pyrrolidine-2-carboxamide]",300 nM
4,"Cc1cc(C(F)(F)F)cc(N2C(=O)N(CC(O)CO)C[C@H]2C(=O)N(C)c2ccc(F)c(Cl)c2F)n1 (stereo partly drawn) [Example 226, (4S)—N-(3-Chloro-2,4-difluorophenyl)-1-(2,3-dihydroxypropyl)-N-methyl-3-(6-methyl-4-(trifluoromethyl)pyridin-2-yl)-2-oxoimidazolidine-4-carboxamide]",19 nM
5,"Cc1cc(C(F)(F)F)cc(N2C(=O)N(CCN3CC[C@H](F)C3)C[C@H]2C(=O)N(C)c2ccc(F)c(Cl)c2F)n1 [Example 205, (S)-N-(3-Chloro-2,4-difluorophenyl)-1-(2-((S)-3-fluoropyrrolidin-1-yl)ethyl)-N-methyl-3-(6-methyl-4-(trifluoromethyl)pyridin-2-yl)-2-oxoimidazolidine-4-carboxamide]",6 nM
